{"source": "paper PMC5392334", "about": "“Discovery and characterization of a novel irreversible EGFR mutants selective and potent kinase inhibitor CHMFL-EGFR-26 with a distinct binding mode” (Oncotarget, 2017)", "key": {"[1]": {"test_system": "NSCLC cell lines (H1975, HCC827, PC9, H3255; EGFR wt lines)", "assay": "Apoptosis effect examination (Caspase-3 and PARP cleavage)", "type": "cell-based, human", "description": "We then examined CHMFL-EGFR-26's effect on cell cycle progression and apoptosis.\nCells were then washed in PBS and lysed in cell lysis buffer. PARP, Caspase-3, GAPDH antibodies were used for immunoblotting."}, "FGFR4": {"biological_target": "T1, FGFR4 (Homo sapiens, UniProt P22455)", "T1 construct": "purchased DiscoveRx KINOMEscan", "T1 sequence (P22455 22-802)": "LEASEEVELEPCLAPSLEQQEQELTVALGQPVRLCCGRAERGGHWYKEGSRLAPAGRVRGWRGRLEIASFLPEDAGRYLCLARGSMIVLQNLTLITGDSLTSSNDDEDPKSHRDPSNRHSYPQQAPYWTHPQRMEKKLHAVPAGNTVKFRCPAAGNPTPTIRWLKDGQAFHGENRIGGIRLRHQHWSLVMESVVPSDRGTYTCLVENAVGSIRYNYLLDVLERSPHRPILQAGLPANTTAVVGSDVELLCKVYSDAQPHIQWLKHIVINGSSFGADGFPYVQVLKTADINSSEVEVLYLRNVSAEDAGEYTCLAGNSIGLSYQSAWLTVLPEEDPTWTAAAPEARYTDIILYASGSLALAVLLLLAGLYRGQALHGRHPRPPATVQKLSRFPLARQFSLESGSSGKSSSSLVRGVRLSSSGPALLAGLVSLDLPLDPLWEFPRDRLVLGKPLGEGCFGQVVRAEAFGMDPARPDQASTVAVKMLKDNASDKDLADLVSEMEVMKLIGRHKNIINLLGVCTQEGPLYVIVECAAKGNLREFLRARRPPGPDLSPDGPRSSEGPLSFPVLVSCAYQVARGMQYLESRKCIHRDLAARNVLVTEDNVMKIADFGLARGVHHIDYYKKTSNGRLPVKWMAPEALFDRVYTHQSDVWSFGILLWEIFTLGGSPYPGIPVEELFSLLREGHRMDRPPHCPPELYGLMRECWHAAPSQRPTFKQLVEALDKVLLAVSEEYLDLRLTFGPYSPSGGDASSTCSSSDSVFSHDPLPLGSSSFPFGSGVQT", "assay": "KinomeScan", "type": "binding", "conditions": "read-out: % control"}, "BRAF": {"biological_target": "T2, BRAF (Homo sapiens, UniProt P15056)", "T2 construct": "purchased DiscoveRx KINOMEscan", "assay": "KinomeScan", "type": "binding", "conditions": "read-out: % control"}, "MET(M1250T)": {"biological_target": "T3, MET(M1250T) (Homo sapiens, UniProt P08581, M1250T)", "T3 construct": "purchased DiscoveRx KINOMEscan", "assay": "KinomeScan", "type": "binding", "conditions": "read-out: % control"}, "FLT1": {"biological_target": "T4, FLT1 (Homo sapiens, UniProt P17948)", "T4 construct": "purchased DiscoveRx KINOMEscan", "assay": "KinomeScan", "type": "binding", "conditions": "read-out: % control"}, "SGK2": {"biological_target": "T5, SGK2 (Homo sapiens, UniProt Q9HBY8)", "T5 construct": "purchased DiscoveRx KINOMEscan", "assay": "KinomeScan", "type": "binding", "conditions": "read-out: % control"}, "PIK3CG": {"biological_target": "T6, PIK3CG (Homo sapiens, UniProt P48736)", "T6 construct": "purchased DiscoveRx KINOMEscan", "assay": "KinomeScan", "type": "binding", "conditions": "read-out: % control"}, "EGFR(G719S)": {"biological_target": "T7, EGFR(G719S) (Homo sapiens, UniProt P00533, G719S)", "T7 construct": "purchased DiscoveRx KINOMEscan", "T7 sequence (P00533 25-1210 G719S)": "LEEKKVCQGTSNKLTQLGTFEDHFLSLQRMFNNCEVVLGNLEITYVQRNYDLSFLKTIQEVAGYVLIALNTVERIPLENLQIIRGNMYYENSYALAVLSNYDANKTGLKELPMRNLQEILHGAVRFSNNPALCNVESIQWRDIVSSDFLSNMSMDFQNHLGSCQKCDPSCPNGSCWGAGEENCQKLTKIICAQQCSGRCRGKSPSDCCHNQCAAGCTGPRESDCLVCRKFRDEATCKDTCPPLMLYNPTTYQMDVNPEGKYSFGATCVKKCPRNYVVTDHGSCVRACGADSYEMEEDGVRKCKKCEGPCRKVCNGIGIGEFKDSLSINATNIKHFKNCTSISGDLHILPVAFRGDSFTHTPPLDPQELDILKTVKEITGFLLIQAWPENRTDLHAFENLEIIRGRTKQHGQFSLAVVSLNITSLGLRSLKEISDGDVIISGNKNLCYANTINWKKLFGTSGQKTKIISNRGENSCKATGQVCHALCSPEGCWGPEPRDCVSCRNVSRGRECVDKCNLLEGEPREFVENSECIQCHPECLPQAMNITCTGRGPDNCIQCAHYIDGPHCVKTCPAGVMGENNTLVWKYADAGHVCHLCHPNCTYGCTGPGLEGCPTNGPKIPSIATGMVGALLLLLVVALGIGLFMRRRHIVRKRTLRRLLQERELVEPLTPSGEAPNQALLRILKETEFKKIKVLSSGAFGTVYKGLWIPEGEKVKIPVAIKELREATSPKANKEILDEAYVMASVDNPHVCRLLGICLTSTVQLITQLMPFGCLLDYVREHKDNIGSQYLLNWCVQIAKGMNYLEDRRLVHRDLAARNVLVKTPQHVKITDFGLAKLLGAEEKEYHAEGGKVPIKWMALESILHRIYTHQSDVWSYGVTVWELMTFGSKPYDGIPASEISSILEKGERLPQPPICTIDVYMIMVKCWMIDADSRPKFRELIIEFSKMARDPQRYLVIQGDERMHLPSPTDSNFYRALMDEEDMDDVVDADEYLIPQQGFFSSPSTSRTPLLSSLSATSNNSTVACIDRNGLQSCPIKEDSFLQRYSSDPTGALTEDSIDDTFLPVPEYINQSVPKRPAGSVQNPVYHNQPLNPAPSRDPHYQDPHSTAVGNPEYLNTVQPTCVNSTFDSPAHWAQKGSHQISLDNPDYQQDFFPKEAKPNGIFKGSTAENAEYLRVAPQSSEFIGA", "assay": "KinomeScan", "type": "binding", "conditions": "read-out: % control"}, "ERBB4": {"biological_target": "T8, ERBB4 (Homo sapiens, UniProt Q15303)", "T8 construct": "purchased DiscoveRx KINOMEscan", "assay": "KinomeScan", "type": "binding", "conditions": "read-out: % control"}, "HIPK2": {"biological_target": "T9, HIPK2 (Homo sapiens, UniProt Q9H2X6)", "T9 construct": "purchased DiscoveRx KINOMEscan", "assay": "KinomeScan", "type": "binding", "conditions": "read-out: % control"}, "PIM1": {"biological_target": "T10, PIM1 (Homo sapiens, UniProt P11309)", "T10 construct": "purchased DiscoveRx KINOMEscan", "assay": "KinomeScan", "type": "binding", "conditions": "read-out: % control"}, "CSNK1A1": {"biological_target": "T11, CSNK1A1 (Homo sapiens, UniProt P48729)", "T11 construct": "purchased DiscoveRx KINOMEscan", "assay": "KinomeScan", "type": "binding", "conditions": "read-out: % control"}, "FER": {"biological_target": "T12, FER (Homo sapiens, UniProt P16591)", "T12 construct": "purchased DiscoveRx KINOMEscan", "assay": "KinomeScan", "type": "binding", "conditions": "read-out: % control"}, "PDGFRB": {"biological_target": "T13, PDGFRB (Homo sapiens, UniProt P09619)", "T13 construct": "purchased DiscoveRx KINOMEscan", "assay": "KinomeScan", "type": "binding", "conditions": "read-out: % control"}, "EGFR(ErbB1)": {"biological_target": "EGFR(ErbB1) (Homo sapiens, UniProt P00533)", "sequence (P00533 25-1210)": "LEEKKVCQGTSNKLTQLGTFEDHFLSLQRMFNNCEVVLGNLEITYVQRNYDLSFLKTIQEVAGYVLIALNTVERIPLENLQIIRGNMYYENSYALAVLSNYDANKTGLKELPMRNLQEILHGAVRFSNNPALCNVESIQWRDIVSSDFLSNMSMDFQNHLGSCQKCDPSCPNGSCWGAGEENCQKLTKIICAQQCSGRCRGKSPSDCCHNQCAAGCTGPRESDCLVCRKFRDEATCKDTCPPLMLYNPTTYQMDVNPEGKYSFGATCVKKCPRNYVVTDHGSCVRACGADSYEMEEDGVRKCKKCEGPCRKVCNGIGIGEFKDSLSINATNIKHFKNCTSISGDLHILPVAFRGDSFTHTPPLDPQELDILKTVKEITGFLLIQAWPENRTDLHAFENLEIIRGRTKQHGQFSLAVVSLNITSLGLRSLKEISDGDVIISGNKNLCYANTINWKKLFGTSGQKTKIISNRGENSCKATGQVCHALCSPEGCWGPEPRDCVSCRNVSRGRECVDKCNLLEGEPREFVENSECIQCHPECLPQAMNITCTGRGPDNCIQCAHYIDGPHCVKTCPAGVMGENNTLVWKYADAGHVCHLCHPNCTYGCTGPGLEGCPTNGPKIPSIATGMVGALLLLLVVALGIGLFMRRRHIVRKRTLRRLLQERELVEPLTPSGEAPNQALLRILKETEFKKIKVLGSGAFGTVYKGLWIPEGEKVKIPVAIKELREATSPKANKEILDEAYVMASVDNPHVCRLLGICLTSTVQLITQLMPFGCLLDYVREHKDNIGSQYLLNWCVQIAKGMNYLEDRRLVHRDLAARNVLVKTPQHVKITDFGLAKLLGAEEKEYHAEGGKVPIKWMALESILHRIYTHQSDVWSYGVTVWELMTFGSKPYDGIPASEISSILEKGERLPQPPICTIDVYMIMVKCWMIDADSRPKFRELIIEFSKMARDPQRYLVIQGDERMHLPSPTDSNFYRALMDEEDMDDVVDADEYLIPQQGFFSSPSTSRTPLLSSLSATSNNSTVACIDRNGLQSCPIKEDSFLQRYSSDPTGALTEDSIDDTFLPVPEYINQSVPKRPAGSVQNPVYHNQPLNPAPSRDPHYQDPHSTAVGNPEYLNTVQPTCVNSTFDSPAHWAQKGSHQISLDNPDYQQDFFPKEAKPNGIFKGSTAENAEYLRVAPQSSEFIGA", "assay": "SelectScreen biochemical assay"}, "SIK": {"biological_target": "T14, SIK (Homo sapiens, UniProt P57059)", "T14 construct": "purchased DiscoveRx KINOMEscan", "assay": "KinomeScan", "type": "binding", "conditions": "read-out: % control"}, "TSSK1B": {"biological_target": "T15, TSSK1B (Homo sapiens, UniProt Q9BXA7)", "T15 construct": "purchased DiscoveRx KINOMEscan", "assay": "KinomeScan", "type": "binding", "conditions": "read-out: % control"}, "PRKD2": {"biological_target": "T16, PRKD2 (Homo sapiens, UniProt Q9BZL6)", "T16 construct": "purchased DiscoveRx KINOMEscan", "assay": "KinomeScan", "type": "binding", "conditions": "read-out: % control"}, "FES": {"biological_target": "T17, FES (Homo sapiens, UniProt P07332)", "T17 construct": "purchased DiscoveRx KINOMEscan", "assay": "KinomeScan", "type": "binding", "conditions": "read-out: % control"}, "AKT2": {"biological_target": "T18, AKT2 (Homo sapiens, UniProt P31751)", "T18 construct": "purchased DiscoveRx KINOMEscan", "assay": "KinomeScan", "type": "binding", "conditions": "read-out: % control"}, "KIT(D816H)": {"biological_target": "T19, KIT(D816H) (Homo sapiens, UniProt P10721, D816H)", "T19 construct": "purchased DiscoveRx KINOMEscan", "T19 sequence (P10721 26-976 D816H)": "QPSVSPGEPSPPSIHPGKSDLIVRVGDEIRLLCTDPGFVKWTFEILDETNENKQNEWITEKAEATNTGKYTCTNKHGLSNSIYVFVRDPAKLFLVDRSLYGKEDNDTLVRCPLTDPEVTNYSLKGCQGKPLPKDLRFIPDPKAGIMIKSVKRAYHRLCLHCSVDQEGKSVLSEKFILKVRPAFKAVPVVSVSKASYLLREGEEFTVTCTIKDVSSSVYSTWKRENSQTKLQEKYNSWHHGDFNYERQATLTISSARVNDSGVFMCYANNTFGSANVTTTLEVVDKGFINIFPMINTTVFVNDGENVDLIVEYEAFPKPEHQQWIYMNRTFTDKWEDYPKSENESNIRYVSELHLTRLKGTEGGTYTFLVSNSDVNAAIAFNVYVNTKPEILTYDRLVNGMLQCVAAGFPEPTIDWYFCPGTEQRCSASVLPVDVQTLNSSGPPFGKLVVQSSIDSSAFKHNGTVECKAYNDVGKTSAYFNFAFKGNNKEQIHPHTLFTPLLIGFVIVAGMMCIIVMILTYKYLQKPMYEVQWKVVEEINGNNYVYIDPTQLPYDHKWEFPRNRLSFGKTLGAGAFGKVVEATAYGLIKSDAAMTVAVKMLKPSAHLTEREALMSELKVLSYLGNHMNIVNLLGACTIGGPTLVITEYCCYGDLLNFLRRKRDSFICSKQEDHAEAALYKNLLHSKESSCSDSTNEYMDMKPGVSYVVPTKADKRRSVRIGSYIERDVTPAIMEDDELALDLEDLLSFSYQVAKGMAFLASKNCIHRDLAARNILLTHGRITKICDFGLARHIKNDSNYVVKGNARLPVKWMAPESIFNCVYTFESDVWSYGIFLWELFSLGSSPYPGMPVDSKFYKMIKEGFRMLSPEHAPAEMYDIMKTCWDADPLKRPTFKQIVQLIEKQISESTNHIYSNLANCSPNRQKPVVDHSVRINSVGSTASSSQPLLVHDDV", "assay": "KinomeScan", "type": "binding", "conditions": "read-out: % control"}, "AURKC": {"biological_target": "T20, AURKC (Homo sapiens, UniProt Q9UQB9)", "T20 construct": "purchased DiscoveRx KINOMEscan", "assay": "KinomeScan", "type": "binding", "conditions": "read-out: % control"}, "PIKFYVE": {"biological_target": "T21, PIKFYVE (Homo sapiens, UniProt Q9Y2I7)", "T21 construct": "purchased DiscoveRx KINOMEscan", "assay": "KinomeScan", "type": "binding", "conditions": "read-out: % control"}, "MARK2": {"biological_target": "T22, MARK2 (Homo sapiens, UniProt Q7KZI7)", "T22 construct": "purchased DiscoveRx KINOMEscan", "assay": "KinomeScan", "type": "binding", "conditions": "read-out: % control"}, "FRK": {"biological_target": "T23, FRK (Homo sapiens, UniProt P42685)", "T23 construct": "purchased DiscoveRx KINOMEscan", "assay": "KinomeScan", "type": "binding", "conditions": "read-out: % control"}, "GCN2(Kin.Dom.2,S808G)": {"biological_target": "T24, GCN2(Kin.Dom.2,S808G) (Homo sapiens, UniProt Q9P2K8, S808G)", "T24 construct": "GCN2(Kin.Dom.2,S808G); purchased DiscoveRx KINOMEscan", "T24 sequence (Q9P2K8 590-1001 S808G limits assumed)": "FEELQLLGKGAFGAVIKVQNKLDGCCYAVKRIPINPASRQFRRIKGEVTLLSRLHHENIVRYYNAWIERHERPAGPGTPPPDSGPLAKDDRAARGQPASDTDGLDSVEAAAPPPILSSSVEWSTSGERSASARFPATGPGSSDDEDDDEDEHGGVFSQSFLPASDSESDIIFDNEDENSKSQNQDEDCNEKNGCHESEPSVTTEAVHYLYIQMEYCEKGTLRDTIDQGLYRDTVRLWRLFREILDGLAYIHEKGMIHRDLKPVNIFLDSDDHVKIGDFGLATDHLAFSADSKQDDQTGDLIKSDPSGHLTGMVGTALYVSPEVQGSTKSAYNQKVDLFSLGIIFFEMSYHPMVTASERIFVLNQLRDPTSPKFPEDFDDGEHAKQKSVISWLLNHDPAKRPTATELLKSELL", "assay": "KinomeScan", "type": "binding", "conditions": "read-out: % control"}, "CSNK1D": {"biological_target": "T25, CSNK1D (Homo sapiens, UniProt P48730)", "T25 construct": "purchased DiscoveRx KINOMEscan", "assay": "KinomeScan", "type": "binding", "conditions": "read-out: % control"}, "EPHB1": {"biological_target": "T26, EPHB1 (Homo sapiens, UniProt P54762)", "T26 construct": "purchased DiscoveRx KINOMEscan", "assay": "KinomeScan", "type": "binding", "conditions": "read-out: % control"}, "BaF3-FL-EGFR-del19": {"test_system": "BaF3-FL-EGFR-del19", "assay": "Anti-proliferation, BaF3 isogenic cell lines (CellTiter-Glo)", "type": "cell-based", "conditions": "Mus musculus, 72 hours, triplet testing"}, "GRK4": {"biological_target": "T27, GRK4 (Homo sapiens, UniProt P32298)", "T27 construct": "purchased DiscoveRx KINOMEscan", "assay": "KinomeScan", "type": "binding", "conditions": "read-out: % control"}, "PIP5K1C": {"biological_target": "T28, PIP5K1C (Homo sapiens, UniProt O60331)", "T28 construct": "purchased DiscoveRx KINOMEscan", "assay": "KinomeScan", "type": "binding", "conditions": "read-out: % control"}, "IRAK4": {"biological_target": "T29, IRAK4 (Homo sapiens, UniProt Q9NWZ3)", "T29 construct": "purchased DiscoveRx KINOMEscan", "assay": "KinomeScan", "type": "binding", "conditions": "read-out: % control"}}, "note": "“And” between values parts separate entries of the source, which are not always exact repeats. Identical values can stand only once.", "data": [{"smiles": "C=CC(=O)N1CCC[C@@H](n2nc(-c3ccc(OCc4cccc(C)n4)c(Cl)c3)c3c(N)ncnc32)C1", "note": "[CHMFL-EGFR-26]", "values": [{"measurement": "Caspase-3 and PARP cleavage (apoptosis)", "setting": "[1]; EGFR wt NSCLC cell lines, 72hrs", "result": "no cleaved Caspase-3 and PARP detected"}, {"measurement": "Caspase-3 and PARP cleavage (apoptosis)", "setting": "[1]; H1975, HCC827, PC9 and H3255, 30nM, 24hrs", "result": "sufficient to induce Caspase-3 and PARP cleavage"}, {"measurement": "remaining binding at 1 µM", "setting": "FGFR4", "result": 100, "unit": "%"}, {"measurement": "remaining binding at 1 µM", "setting": "BRAF", "result": 85, "unit": "%"}, {"measurement": "remaining binding at 1 µM", "setting": "MET(M1250T)", "result": 90, "unit": "%"}, {"measurement": "remaining binding at 1 µM", "setting": "FLT1", "result": 93, "unit": "%"}, {"measurement": "remaining binding at 1 µM", "setting": "SGK2", "result": 100, "unit": "%"}, {"measurement": "remaining binding at 1 µM", "setting": "PIK3CG", "result": 100, "unit": "%"}, {"measurement": "remaining binding at 1 µM", "setting": "EGFR(G719S)", "result": 18, "unit": "%"}, {"measurement": "remaining binding at 1 µM", "setting": "ERBB4", "result": 0.45, "unit": "%"}, {"measurement": "remaining binding at 1 µM", "setting": "HIPK2", "result": 100, "unit": "%"}, {"measurement": "remaining binding at 1 µM", "setting": "PIM1", "result": 97, "unit": "%"}, {"measurement": "remaining binding at 1 µM", "setting": "CSNK1A1", "result": 100, "unit": "%"}, {"measurement": "remaining binding at 1 µM", "setting": "FER", "result": 56, "unit": "%"}, {"measurement": "remaining binding at 1 µM", "setting": "PDGFRB", "result": 94, "unit": "%"}, {"measurement": "IC50", "setting": "EGFR(ErbB1)", "result": "71 nM and 71.4 nM"}, {"measurement": "remaining binding at 1 µM", "setting": "SIK", "result": 69, "unit": "%"}, {"measurement": "remaining binding at 1 µM", "setting": "TSSK1B", "result": 89, "unit": "%"}, {"measurement": "remaining binding at 1 µM", "setting": "PRKD2", "result": 81, "unit": "%"}, {"measurement": "remaining binding at 1 µM", "setting": "FES", "result": 97, "unit": "%"}, {"measurement": "remaining binding at 1 µM", "setting": "AKT2", "result": 86, "unit": "%"}, {"measurement": "remaining binding at 1 µM", "setting": "KIT(D816H)", "result": 100, "unit": "%"}, {"measurement": "remaining binding at 1 µM", "setting": "AURKC", "result": 87, "unit": "%"}, {"measurement": "remaining binding at 1 µM", "setting": "PIKFYVE", "result": 75, "unit": "%"}, {"measurement": "remaining binding at 1 µM", "setting": "MARK2", "result": 95, "unit": "%"}, {"measurement": "remaining binding at 1 µM", "setting": "FRK", "result": 96, "unit": "%"}, {"measurement": "remaining binding at 1 µM", "setting": "GCN2(Kin.Dom.2,S808G)", "result": 90, "unit": "%"}, {"measurement": "remaining binding at 1 µM", "setting": "CSNK1D", "result": 95, "unit": "%"}, {"measurement": "remaining binding at 1 µM", "setting": "EPHB1", "result": 96, "unit": "%"}, {"measurement": "GI50", "setting": "BaF3-FL-EGFR-del19", "result": 13, "unit": "nM"}, {"measurement": "remaining binding at 1 µM", "setting": "GRK4", "result": 88, "unit": "%"}, {"measurement": "remaining binding at 1 µM", "setting": "PIP5K1C", "result": 67, "unit": "%"}, {"measurement": "remaining binding at 1 µM", "setting": "IRAK4", "result": 100, "unit": "%"}]}]}
